Results taken from patent US5344933A, “Pyrrole ring-or condensed pyrrole ring-containing azomethine dye” (Fuji Photo Film Co., Ltd., priority 1991, dated 1994).
Each block holds one compound with its values, some of them ahead of it.

What was measured:
Format in all cases: physicochemical
[1] = Absorption characteristics of dyes in ethyl acetate; settings: for absorption maxima wavelength (λmax): Example 1
Description: The σp value of substituents in dyes of the present invention, the absorption maxima wavelength of these dyes in ethyl acetate and their half value widths are tabulated below.
The absorption characteristics of Dyes 1, 2, 8, 12, 23, 101, 102, 104, 105, 106, 128, 129, 130, and 131 of the present invention in ethyl acetate are as shown in FIGS. 1 to 14. In these figures, the abbreviation "ABS" in the ordinate means the absorbance. The absorption maxima wavelength (λmax) in ethyl acetate and other physical properties of the dyes of the present invention are as follows: […]

[2] = Light fastness of dye images, 17,000 lux fluorescent lamp, 7 days
Description: (§1) The heat transfer image-receiving materials on which recording had been made were then irradiated with light from a 17,000 lux fluorescent lamp for 7 days to examine the stability of the dyes. The heat transfer image-receiving materials were also stored at a temperature of 60° C. under dry conditions for 7 days to examine the fastness of the dyes to heat. […] For the evaluation of stability, percentage of the measurements to the initial value (1.0) were determined. The measurement was effected at λmax.
(§2) Heat transfer dye providing materials (3-1), (3-2), and (3-3) were prepared in the same manner as in Example 2 except that the polyvinyl butyral resin and dye to be incorporated in the heat transfer dye providing layer coating composition of Example 2 were replaced by the resins and dyes set forth in Table 3.
(§3) Using the same image-receiving material as prepared in Example 2, printing was made on these heat transfer dye providing materials.
as §2, with “(6-1), (6-2),” for “(3-1), (3-2),”, “(6-3)” for “(3-3)”, “6.” for “3.”

[3] = Heat fastness of dye images, 60° C. dry, 7 days (Example 2); settings: Table 1, initial density 1.0, at λmax
Description: as §1

[4] = Heat fastness of dye images, 60° C. dry, 7 days, status A reflection density (Example 5); settings: Table 4, status A reflection density 1.0
Description: The heat transfer image-receiving materials on which recording had been made were stored at a temperature of 60° C. under dry conditions for 7 days to examine the fastness of the dyes to heat. […] For the evaluation of stability, percentage of the measurements to the initial value (1.0) were determined.
as §3

[5] = Table 1, 17,000 lux, 7 days, initial density 1.0, at λmax, polyvinyl butyral

SMILES: CCOC(=O)c1c(C)n2c(nc1=O)C(C#N)=C(c1ccccc1)C2=Nc1ccc(N(CC)CCNS(C)(=O)=O)cc1C [Dye 1]
absorption maxima wavelength (λmax) [1]: 697 nm

SMILES: CCOC(=O)c1cn2c(nc1=O)C(C#N)=C(C#N)C2=Nc1ccc(N(CC)CC)cc1NC(=O)N(C)C [Dye 16]
Light fastness (% remaining) [2, 5]: 93%
Heat fastness (% remaining) [3]: 98%

SMILES: CCCCCCCCCCCCCCCCCCOc1ccc(-c2cc(=O)n3c(n2)C(C#N)=C(c2ccccc2)C3=Nc2ccc(N(CC)CCNS(C)(=O)=O)cc2C)cc1 [Dye 23]
absorption maxima wavelength (λmax) [1]: 658 nm

SMILES: CCCCCCCCCCCCC(SC1=NC(=Nc2ccc(N(CC)CCNS(C)(=O)=O)cc2C)C(C#N)=C1C(=O)OCC)C(=O)OCC (stereo not drawn) [Dye 101]
Half value width [1]: 65 nm
absorption / hue (in words) [1]: long absorption maxima wavelength
half value width (in words) [1]: sufficiently small
absorption maxima wavelength (λmax) [1]: 660 nm

SMILES: CCCCCCCCCCCCSC1=NC(=Nc2ccc(N(CC)CCNS(C)(=O)=O)cc2C)C(C#N)=C1C(=O)OCC [Dye 102]
Half value width [1]: 69 nm
absorption / hue (in words) [1]: long absorption maxima wavelength
half value width (in words) [1]: sufficiently small
absorption maxima wavelength (λmax) [1]: 655 nm

SMILES: CCC(Oc1ccc(C(C)(C)CC)cc1C(C)(C)CC)C(=O)NC1=C(C#N)C(c2ccccc2)=NC1=Nc1ccc(N(CC)CCNS(C)(=O)=O)cc1C (stereo not drawn) [Dye 104]
Half value width [1]: 78 nm
absorption / hue (in words) [1]: in a slightly short wavelength range but exhibit a cyan hue
half value width (in words) [1]: large half value width
absorption maxima wavelength (λmax) [1]: 601 nm

SMILES: CCOC(=O)C1=C(c2ccccc2)C(=Nc2ccc(N(CC)CCNS(C)(=O)=O)cc2C)N=C1Cl [Dye 105]
Half value width [1]: 82 nm
absorption / hue (in words) [1]: in a slightly short wavelength range but exhibit a cyan hue
half value width (in words) [1]: large half value width
absorption maxima wavelength (λmax) [1]: 582 nm

SMILES: CCN(CCNS(C)(=O)=O)c1ccc(N=C2N=C(N)C(C#N)=C2C#N)c(C)c1 [Dye 106]
Half value width [1]: 79 nm
absorption maxima wavelength (λmax) [1]: 641 nm

SMILES: CCN(CCNS(C)(=O)=O)c1ccc(N=C2N=C(NC(C)=O)C(C#N)=C2C#N)c(C)c1 [Dye 128]
Half value width [1]: 64 nm
absorption / hue (in words) [1]: long absorption maxima wavelength
half value width (in words) [1]: sufficiently small
absorption maxima wavelength (λmax) [1]: 658 nm

SMILES: CCN(CCNS(C)(=O)=O)c1ccc(N=C2N=C(NC(=O)Nc3ccccc3)C(C#N)=C2C#N)c(C)c1 [Dye 129]
Half value width [1]: 79 nm
absorption / hue (in words) [1]: long absorption maxima wavelength
half value width (in words) [1]: sufficiently small
absorption maxima wavelength (λmax) [1]: 677 nm

SMILES: CCCCCCCCCCCCCCCCS(=O)(=O)Nc1ccc(Cl)c(NC(=O)NC2=NC(=Nc3ccc(N(CC)CCNS(C)(=O)=O)cc3)C(C(N)=O)=C2C(N)=O)c1 [Dye 130]
Half value width [1]: 120 nm
half value width (in words) [1]: large half value width
absorption maxima wavelength (λmax) [1]: 639 nm

SMILES: CCC(Oc1ccc(C(C)(C)CC)cc1C(C)(C)CC)C(=O)NC1=NC(=Nc2ccc(N(CC)CCNS(C)(=O)=O)cc2C)C(C(N)=O)=C1C(N)=O (stereo not drawn) [Dye 131]
Half value width [1]: 98 nm
half value width (in words) [1]: large half value width
Absorption maxima ([1]; first table): 629 nm

SMILES: CCC1=C(Cl)C(=O)C(NC(=O)c2ccco2)=CC1=Nc1ccc(N(CC)CC)cc1 [Dye a, reference compound]
Light fastness (% remaining) [2, 5]: 87%
Heat fastness (% remaining) [3]: 88%

SMILES: CCN(CC)c1ccc(N=C2C=C(NC(=O)c3ccco3)C(=O)C(Cl)=C2C)cc1 [Dye b, reference compound]
Heat fastness (% remaining) [4]: 83%

Continued, in another order:

Light fastness (% remaining) [2, 5]: 90%
Light fastness (% remaining) ([2]; Table 3, resin ethyl cellulose): 91%
Heat fastness (% remaining) [3]: 85%
absorption maxima wavelength (λmax) [1]: 685 nm
SMILES: CCOC(=O)c1c(C)n2c(nc1=O)C(C#N)=C(c1ccccc1)C2=Nc1ccc(N(CC)CC)cc1 [Dye 2]

Light fastness (% remaining) [2, 5]: 92%
Heat fastness (% remaining) [3]: 86%
SMILES: CCOC(=O)c1c(C)n2c(nc1=O)C(C#N)=C(c1ccccc1)C2=Nc1ccc(N(CC)CCOc2ccc(OC)cc2)cc1 [Dye 3]

Light fastness (% remaining) [2, 5]: 91%
Light fastness (% remaining) ([2]; Table 3, resin cellulose acetobutyrate): 92%
Heat fastness (% remaining) [3]: 85%
SMILES: CCOC(=O)c1c(C)n2c(nc1=O)C(C#N)=C(c1ccccc1)C2=Nc1ccc(N(CC)CC)cc1NC(=O)OC [Dye 4]

Light fastness (% remaining) [2, 5]: 91%
Light fastness (% remaining) ([2]; Table 3, resin polysulfone): 91%
Heat fastness (% remaining) [3]: 99%
absorption maxima wavelength (λmax) [1]: 694 nm
SMILES: CCOC(=O)c1cn2c(nc1=O)C(C#N)=C(c1ccccc1)C2=Nc1ccc(N(CC)CC)cc1 [Dye 8]

Light fastness (% remaining) [2, 5]: 93%
Heat fastness (% remaining) [3]: 100%
SMILES: CCOC(=O)c1cn2c(nc1=O)C(C#N)=C(c1ccccc1)C2=Nc1ccc(N(CC)CCOc2ccc(OC)cc2)cc1 [Dye 10]

Light fastness (% remaining) [2, 5]: 94%
Heat fastness (% remaining) [3]: 98%
absorption maxima wavelength (λmax) [1]: 698 nm
SMILES: CCOC(=O)c1cn2c(nc1=O)C(C#N)=C(c1ccccc1)C2=Nc1ccc(N(CC)CC)cc1NC(=O)OC [Dye 12]
absorption / hue (in words) [1]: sufficient and sharp absorption in the vicinity of 700 nm and little or no absorption in the wavelength region of longer than 800 nm

Light fastness (% remaining) [2, 5]: 91%
Heat fastness (% remaining) [3]: 95%
SMILES: CCN(CC)c1ccc(N=C2C(C#N)=C(c3ccccc3)c3nc(=O)ccn32)c(NC(C)=O)c1 [Dye 17]

Light fastness (% remaining) [2, 5]: 91%
Heat fastness (% remaining) [3]: 85%
SMILES: CCN(CC)c1ccc(N=C2C(c3ccccc3)=C(C#N)c3nc(=O)c4ccccc4n32)c(NC(C)=O)c1 [Dye 22]

Light fastness (% remaining) [2, 5]: 90%
Heat fastness (% remaining) [3]: 86%
SMILES: CCOC(=O)C1=C(C#N)C(=Nc2ccc(N(CC)CC)cc2)n2c1nc1ccccc1c2=O [Dye 29]

Light fastness (% remaining) ([2]; Table 6, resin ethyl cellulose): 91%
Heat fastness (% remaining) [4]: 90%
SMILES: CCN(CC)c1ccc(N=C2N=C(NC(=O)C(C)(C)C)C(C#N)=C2C#N)cc1 [Dye 113]

Light fastness (% remaining) ([2]; Table 6, resin cellulose acetobutyrate): 93%
Heat fastness (% remaining) [4]: 91%
SMILES: CCN(CC)c1ccc(N=C2N=C(c3ccccc3)C(C#N)=C2c2ccccc2)c(C)c1 [Dye 114]

Light fastness (% remaining) ([2]; Table 6, resin polysulfone): 92%
Heat fastness (% remaining) [4]: 90%
SMILES: CCN(CCOc1ccc(OC)cc1)c1ccc(N=C2N=C(c3ccccc3)C(C#N)=C2NC(=O)C(C)(C)C)cc1 [Dye 115]

Heat fastness (% remaining) [4]: 89%
SMILES: CCN(CC)c1ccc(N=C2N=C(c3ccccc3NC(=O)C(C)(C)C)C(C#N)=C2c2ccccc2)cc1 [Dye 116]

Heat fastness (% remaining) [4]: 94%
SMILES: CCN(CC)c1ccc(N=C2N=C(c3ccccc3)C(C#N)=C2C(C)(C)C)c(NC(=O)N2CCOCC2)c1 [Dye 117]

Heat fastness (% remaining) [4]: 91%
SMILES: CCN(CC)c1ccc(N=C2N=C(c3ccccc3Cl)C(C(C)(C)C)=C2C#N)c(NC(=O)C(C)(C)C)c1 [Dye 118]

Heat fastness (% remaining) [4]: 90%
SMILES: CCN(CCC#N)c1ccc(N=C2N=C(NC(=O)C(C)(C)C)C(C#N)=C2C#N)cc1 [Dye 119]

Heat fastness (% remaining) [4]: 98%
SMILES: CCN(CCOc1ccc(C(=O)c2ccccc2)c(O)c1)c1ccc(N=C2N=C(c3ccccc3)C(C#N)=C2c2cccs2)cc1 [Dye 120]
